“Also recorded” adds a separate entry of the source. Where two headings read alike, the source gives them in different places.
How the values were obtained:
human BSEP = human BSEP (Homo sapiens, UniProt O95342); test: Transporter inhibition, vesicular transport assay; type: in vitro ADME
CYP1A2 = test: in vitro; type: in vitro ADME, human; conditions: 48 h
[1] = combined DMD patient populations, DFZ 0.9 mg/kg/day; ref PTC internal data; cited from earlier work
human MDR1 = human MDR1 (Homo sapiens, UniProt P08183); test: Transporter inhibition, vesicular transport assay; type: in vitro ADME
[2] = system: CYP isoforms (1A2, 2B6, 2C8, 2C9, 2C19, 2D6, 3A4); test: Time‐dependent and mechanism‐based CYP inhibition; type: in vitro ADME, human; conditions: 30 min preincubation in absence and presence of NADPH
human OAT3 = molecular target: T1, human OAT3 (Homo sapiens, UniProt Q8TCC7); test: Transporter inhibition, uptake assay; type: in vitro ADME
T1 sequence (Q8TCC7 1-542): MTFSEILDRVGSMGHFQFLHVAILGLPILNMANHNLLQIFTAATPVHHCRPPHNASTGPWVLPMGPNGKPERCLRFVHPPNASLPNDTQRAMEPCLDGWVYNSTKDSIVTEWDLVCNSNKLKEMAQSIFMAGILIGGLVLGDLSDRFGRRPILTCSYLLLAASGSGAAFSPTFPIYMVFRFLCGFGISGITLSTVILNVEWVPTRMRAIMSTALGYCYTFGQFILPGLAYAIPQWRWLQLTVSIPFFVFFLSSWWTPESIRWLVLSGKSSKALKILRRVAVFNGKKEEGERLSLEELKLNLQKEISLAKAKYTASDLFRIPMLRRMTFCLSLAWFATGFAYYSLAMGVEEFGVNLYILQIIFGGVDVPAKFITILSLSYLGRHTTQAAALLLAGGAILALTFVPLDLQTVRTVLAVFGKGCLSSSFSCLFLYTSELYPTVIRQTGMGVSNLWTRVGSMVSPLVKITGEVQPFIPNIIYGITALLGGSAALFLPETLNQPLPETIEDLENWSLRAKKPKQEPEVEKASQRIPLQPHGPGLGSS

human OAT1 = molecular target: T2, human OAT1 (Homo sapiens, UniProt Q4U2R8); test: Transporter inhibition, uptake assay; type: in vitro ADME
T2 sequence (Q4U2R8 1-563): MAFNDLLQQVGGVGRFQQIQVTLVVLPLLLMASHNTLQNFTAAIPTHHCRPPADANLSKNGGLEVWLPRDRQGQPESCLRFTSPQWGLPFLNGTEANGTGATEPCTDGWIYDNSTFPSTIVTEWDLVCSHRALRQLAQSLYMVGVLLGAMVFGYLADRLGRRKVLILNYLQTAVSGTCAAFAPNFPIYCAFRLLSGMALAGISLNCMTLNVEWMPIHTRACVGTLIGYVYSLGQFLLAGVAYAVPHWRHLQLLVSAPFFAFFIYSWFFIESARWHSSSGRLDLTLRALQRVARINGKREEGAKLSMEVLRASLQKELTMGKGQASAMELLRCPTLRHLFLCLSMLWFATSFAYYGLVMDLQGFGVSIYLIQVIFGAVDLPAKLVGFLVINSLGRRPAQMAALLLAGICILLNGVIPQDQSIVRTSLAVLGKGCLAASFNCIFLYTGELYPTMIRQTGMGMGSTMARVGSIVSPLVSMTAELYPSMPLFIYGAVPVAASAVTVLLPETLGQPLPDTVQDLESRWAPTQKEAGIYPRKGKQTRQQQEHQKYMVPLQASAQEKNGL

CYP3A4 = conditions: 48 h

Chain of human BSEP (O95342 whole entry): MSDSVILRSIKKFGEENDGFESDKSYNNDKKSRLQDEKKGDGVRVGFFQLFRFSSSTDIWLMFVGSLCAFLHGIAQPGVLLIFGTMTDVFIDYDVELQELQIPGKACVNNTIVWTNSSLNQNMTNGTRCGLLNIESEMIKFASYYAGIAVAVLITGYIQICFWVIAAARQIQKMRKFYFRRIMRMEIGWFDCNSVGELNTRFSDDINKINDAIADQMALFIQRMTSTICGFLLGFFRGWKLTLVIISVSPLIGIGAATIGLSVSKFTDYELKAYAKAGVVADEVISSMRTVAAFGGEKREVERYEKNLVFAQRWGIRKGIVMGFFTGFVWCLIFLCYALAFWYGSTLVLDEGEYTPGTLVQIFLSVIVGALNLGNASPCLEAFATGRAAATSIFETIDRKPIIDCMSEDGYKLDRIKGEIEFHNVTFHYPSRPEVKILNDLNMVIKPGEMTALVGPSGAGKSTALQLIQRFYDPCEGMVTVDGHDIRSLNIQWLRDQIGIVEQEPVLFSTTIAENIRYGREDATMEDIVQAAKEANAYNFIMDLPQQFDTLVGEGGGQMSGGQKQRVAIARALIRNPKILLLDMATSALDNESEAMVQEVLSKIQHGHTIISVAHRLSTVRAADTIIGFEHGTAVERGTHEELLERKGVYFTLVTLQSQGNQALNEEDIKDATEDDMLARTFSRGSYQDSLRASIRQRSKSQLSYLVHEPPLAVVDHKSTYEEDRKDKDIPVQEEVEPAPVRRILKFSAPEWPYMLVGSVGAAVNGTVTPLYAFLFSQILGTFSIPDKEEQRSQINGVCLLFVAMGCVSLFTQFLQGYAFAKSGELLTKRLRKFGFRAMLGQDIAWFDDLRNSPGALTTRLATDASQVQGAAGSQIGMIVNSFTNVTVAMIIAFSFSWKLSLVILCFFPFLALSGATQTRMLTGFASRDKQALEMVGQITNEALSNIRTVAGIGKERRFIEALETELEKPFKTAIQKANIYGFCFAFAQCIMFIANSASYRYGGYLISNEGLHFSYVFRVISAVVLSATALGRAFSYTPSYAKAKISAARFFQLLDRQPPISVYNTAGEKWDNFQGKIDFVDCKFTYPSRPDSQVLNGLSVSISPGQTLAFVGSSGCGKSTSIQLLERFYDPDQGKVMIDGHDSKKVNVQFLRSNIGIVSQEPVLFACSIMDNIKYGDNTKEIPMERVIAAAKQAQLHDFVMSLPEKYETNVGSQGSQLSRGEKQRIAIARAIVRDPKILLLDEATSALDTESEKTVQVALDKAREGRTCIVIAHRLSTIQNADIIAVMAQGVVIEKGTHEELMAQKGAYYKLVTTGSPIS
Chain of human MDR1 (P08183 whole entry, canonical isoform): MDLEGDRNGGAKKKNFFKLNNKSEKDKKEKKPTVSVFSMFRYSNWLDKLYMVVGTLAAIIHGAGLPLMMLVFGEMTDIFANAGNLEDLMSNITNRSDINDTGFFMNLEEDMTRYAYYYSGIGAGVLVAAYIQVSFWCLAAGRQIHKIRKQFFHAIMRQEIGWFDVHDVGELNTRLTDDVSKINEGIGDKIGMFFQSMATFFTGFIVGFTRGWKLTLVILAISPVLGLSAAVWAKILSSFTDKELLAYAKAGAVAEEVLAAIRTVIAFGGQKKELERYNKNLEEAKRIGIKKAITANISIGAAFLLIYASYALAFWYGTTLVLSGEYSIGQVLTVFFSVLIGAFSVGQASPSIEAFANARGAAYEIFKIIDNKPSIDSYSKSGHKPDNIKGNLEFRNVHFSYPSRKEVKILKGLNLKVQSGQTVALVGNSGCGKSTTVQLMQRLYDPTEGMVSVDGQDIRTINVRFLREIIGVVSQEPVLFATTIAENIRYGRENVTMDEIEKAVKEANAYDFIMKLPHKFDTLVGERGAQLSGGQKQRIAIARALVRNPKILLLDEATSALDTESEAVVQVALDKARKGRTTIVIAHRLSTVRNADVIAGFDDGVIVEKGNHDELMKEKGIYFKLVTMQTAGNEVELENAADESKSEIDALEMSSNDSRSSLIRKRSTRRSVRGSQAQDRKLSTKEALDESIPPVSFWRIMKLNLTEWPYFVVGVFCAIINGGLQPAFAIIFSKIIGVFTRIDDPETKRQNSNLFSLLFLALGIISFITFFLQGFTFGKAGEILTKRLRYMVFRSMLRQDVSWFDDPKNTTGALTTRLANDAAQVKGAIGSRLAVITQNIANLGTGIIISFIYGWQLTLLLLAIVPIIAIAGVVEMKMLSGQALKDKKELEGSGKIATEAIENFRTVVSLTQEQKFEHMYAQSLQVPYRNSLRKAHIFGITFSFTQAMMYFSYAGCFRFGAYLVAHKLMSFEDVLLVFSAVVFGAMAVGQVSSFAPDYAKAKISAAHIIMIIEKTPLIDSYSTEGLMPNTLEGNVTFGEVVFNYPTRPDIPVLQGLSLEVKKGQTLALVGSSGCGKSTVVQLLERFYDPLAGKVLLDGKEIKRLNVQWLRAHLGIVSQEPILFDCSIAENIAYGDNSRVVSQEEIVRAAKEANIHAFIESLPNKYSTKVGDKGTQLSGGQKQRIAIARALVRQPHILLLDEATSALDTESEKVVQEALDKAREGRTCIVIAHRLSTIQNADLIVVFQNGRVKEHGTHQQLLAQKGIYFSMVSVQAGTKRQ

CC1=N[C@]2(C(=O)CO)[C@@H](C[C@H]3[C@@H]4C[C@@H](O)C5=CC(=O)C=C[C@]5(C)[C@H]4[C@@H](O)C[C@@]32C)O1 [6β‐OH‐21‐desDFZ, 6β‐Hydroxy‐21‐desacetyl deflazacort]
Maximum inhibition at 50 µM (human BSEP; BSEP VT, n = 3): 27 % of control
inhibitory interaction with transporter (human BSEP; BSEP, up to 50 µM): no inhibitory interaction
CYP1A2 enzyme activity fold induction (CYP1A2; donor one, 0.002 µM): 0.783 fold
CYP1A2 mRNA fold induction (CYP1A2; donor one, 0.002 µM): 0.657 fold
CYP1A2 enzyme activity fold induction (CYP1A2; donor one, 0.01 µM): 0.671 fold
CYP1A2 mRNA fold induction (CYP1A2; donor one, 0.01 µM): 0.735 fold
CYP1A2 enzyme activity fold induction (CYP1A2; donor one, 0.05 µM): 0.649 fold
CYP1A2 mRNA fold induction (CYP1A2; donor one, 0.05 µM): 0.735 fold
CYP1A2 enzyme activity fold induction (CYP1A2; donor one, 0.25 µM): 0.753 fold
CYP1A2 mRNA fold induction (CYP1A2; donor one, 0.25 µM): 0.667 fold
CYP1A2 enzyme activity fold induction (CYP1A2; donor one, 5 µM): 0.770 fold
CYP1A2 mRNA fold induction (CYP1A2; donor one, 5 µM): 0.628 fold
CYP1A2 enzyme activity fold induction (CYP1A2; donor one, 10 µM): 0.772 fold
CYP1A2 mRNA fold induction (CYP1A2; donor one, 10 µM): 0.619 fold
CYP1A2 enzyme activity fold induction (CYP1A2; donor one, 20 µM): 0.699 fold
CYP1A2 mRNA fold induction (CYP1A2; donor one, 20 µM): 0.741 fold
CYP1A2 enzyme activity fold induction (CYP1A2; donor three, 0.002 µM): 1.01 fold
CYP1A2 mRNA fold induction (CYP1A2; donor three, 0.002 µM): 0.665 fold
CYP1A2 enzyme activity fold induction (CYP1A2; donor three, 0.01 µM): 0.892 fold
CYP1A2 mRNA fold induction (CYP1A2; donor three, 0.01 µM): 0.744 fold
CYP1A2 enzyme activity fold induction (CYP1A2; donor three, 0.05 µM): 0.812 fold
CYP1A2 mRNA fold induction (CYP1A2; donor three, 0.05 µM): 0.701 fold
CYP1A2 enzyme activity fold induction (CYP1A2; donor three, 0.25 µM): 0.747 fold
CYP1A2 mRNA fold induction (CYP1A2; donor three, 0.25 µM): 0.610 fold
CYP1A2 enzyme activity fold induction (CYP1A2; donor three, 5 µM): 0.870 fold
CYP1A2 mRNA fold induction (CYP1A2; donor three, 5 µM): 0.635 fold
CYP1A2 enzyme activity fold induction (CYP1A2; donor three, 10 µM): 0.954 fold
CYP1A2 mRNA fold induction (CYP1A2; donor three, 10 µM): 0.647 fold
CYP1A2 enzyme activity fold induction (CYP1A2; donor three, 20 µM): 0.955 fold
CYP1A2 mRNA fold induction (CYP1A2; donor three, 20 µM): 0.723 fold
CYP1A2 enzyme activity fold induction (CYP1A2; donor two, 0.002 µM): 0.913 fold
CYP1A2 mRNA fold induction (CYP1A2; donor two, 0.002 µM): 0.978 fold
CYP1A2 enzyme activity fold induction (CYP1A2; donor two, 0.01 µM): 0.880 fold
CYP1A2 mRNA fold induction (CYP1A2; donor two, 0.01 µM): 0.871 fold
CYP1A2 enzyme activity fold induction (CYP1A2; donor two, 0.05 µM): 0.838 fold
CYP1A2 mRNA fold induction (CYP1A2; donor two, 0.05 µM): 0.928 fold
CYP1A2 enzyme activity fold induction (CYP1A2; donor two, 0.25 µM): 0.832 fold
CYP1A2 mRNA fold induction (CYP1A2; donor two, 0.25 µM): 0.979 fold
CYP1A2 enzyme activity fold induction (CYP1A2; donor two, 5 µM): 1.18 fold
CYP1A2 mRNA fold induction (CYP1A2; donor two, 5 µM): 0.786 fold
CYP1A2 enzyme activity fold induction (CYP1A2; donor two, 10 µM): 1.07 fold
CYP1A2 mRNA fold induction (CYP1A2; donor two, 10 µM): 0.840 fold
CYP1A2 enzyme activity fold induction (CYP1A2; donor two, 20 µM): 1.18 fold
CYP1A2 mRNA fold induction (CYP1A2; donor two, 20 µM): 0.886 fold
plasma Cmax at steady state, mean value [1]: 142 ng/mL
estimated plasma Cmax/IC50 ratio (human MDR1; MDR1, Cmax 0.34 µM, assumed 100% free): 0.017
Maximum inhibition at 50 µM (human MDR1; MDR1 VT, n = 3): 78 % of control
time‐dependent or mechanism‐based inhibition (IC50 shift) [2]: neither time‐dependent nor metabolism‐based; also recorded: did not appear to be a time‐dependent or mechanism‐based inhibitor
inhibitory interaction with transporter (human OAT3; OAT3, up to 50 µM): did not show interaction; also recorded: no inhibitory interaction
Maximum inhibition at 50 µM (human OAT3; OAT3 UPT, n = 3): <20 % of control
inhibitory interaction with transporter (human OAT1; OAT1, up to 50 µM): did not show interaction; also recorded: no inhibitory interaction
Maximum inhibition at 50 µM (human OAT1; OAT1 UPT, n = 3): <20 % of control
CYP3A4 enzyme activity fold induction (CYP3A4; donor one, 0.002 µM): 0.600 fold
CYP3A4 mRNA fold induction (CYP3A4; donor one, 0.002 µM): 0.450 fold
CYP3A4 enzyme activity fold induction (CYP3A4; donor one, 0.01 µM): 0.595 fold
CYP3A4 mRNA fold induction (CYP3A4; donor one, 0.01 µM): 0.583 fold
CYP3A4 enzyme activity fold induction (CYP3A4; donor one, 0.05 µM): 0.604 fold
CYP3A4 mRNA fold induction (CYP3A4; donor one, 0.05 µM): 0.507 fold
CYP3A4 enzyme activity fold induction (CYP3A4; donor one, 0.25 µM): 0.685 fold
CYP3A4 mRNA fold induction (CYP3A4; donor one, 0.25 µM): 0.681 fold
CYP3A4 enzyme activity fold induction (CYP3A4; donor one, 5 µM): 0.451 fold
CYP3A4 mRNA fold induction (CYP3A4; donor one, 5 µM): 0.647 fold
CYP3A4 enzyme activity fold induction (CYP3A4; donor one, 10 µM): 0.446 fold
CYP3A4 mRNA fold induction (CYP3A4; donor one, 10 µM): 0.890 fold
CYP3A4 enzyme activity fold induction (CYP3A4; donor one, 20 µM): 0.561 fold
CYP3A4 mRNA fold induction (CYP3A4; donor one, 20 µM): 1.74 fold
CYP3A4 enzyme activity fold induction (CYP3A4; donor three, 0.002 µM): 0.626 fold
CYP3A4 mRNA fold induction (CYP3A4; donor three, 0.002 µM): 0.562 fold
CYP3A4 enzyme activity fold induction (CYP3A4; donor three, 0.01 µM): 0.543 fold
CYP3A4 mRNA fold induction (CYP3A4; donor three, 0.01 µM): 0.484 fold
CYP3A4 enzyme activity fold induction (CYP3A4; donor three, 0.05 µM): 0.545 fold
CYP3A4 mRNA fold induction (CYP3A4; donor three, 0.05 µM): 0.450 fold
CYP3A4 enzyme activity fold induction (CYP3A4; donor three, 0.25 µM): 0.668 fold
CYP3A4 mRNA fold induction (CYP3A4; donor three, 0.25 µM): 0.684 fold
CYP3A4 enzyme activity fold induction (CYP3A4; donor three, 5 µM): 0.542 fold
CYP3A4 mRNA fold induction (CYP3A4; donor three, 5 µM): 0.615 fold
CYP3A4 enzyme activity fold induction (CYP3A4; donor three, 10 µM): 0.563 fold
CYP3A4 mRNA fold induction (CYP3A4; donor three, 10 µM): 0.764 fold
CYP3A4 enzyme activity fold induction (CYP3A4; donor three, 20 µM): 0.637 fold
CYP3A4 mRNA fold induction (CYP3A4; donor three, 20 µM): 1.33 fold
CYP3A4 enzyme activity fold induction (CYP3A4; donor two, 0.002 µM): 0.601 fold
CYP3A4 mRNA fold induction (CYP3A4; donor two, 0.002 µM): 0.739 fold
CYP3A4 enzyme activity fold induction (CYP3A4; donor two, 0.01 µM): 0.635 fold
CYP3A4 mRNA fold induction (CYP3A4; donor two, 0.01 µM): 0.714 fold
CYP3A4 enzyme activity fold induction (CYP3A4; donor two, 0.05 µM): 0.657 fold
CYP3A4 mRNA fold induction (CYP3A4; donor two, 0.05 µM): 0.739 fold
CYP3A4 enzyme activity fold induction (CYP3A4; donor two, 0.25 µM): 0.769 fold
CYP3A4 mRNA fold induction (CYP3A4; donor two, 0.25 µM): 0.817 fold
CYP3A4 enzyme activity fold induction (CYP3A4; donor two, 5 µM): 0.690 fold
CYP3A4 mRNA fold induction (CYP3A4; donor two, 5 µM): 0.856 fold
CYP3A4 enzyme activity fold induction (CYP3A4; donor two, 10 µM): 0.637 fold
CYP3A4 mRNA fold induction (CYP3A4; donor two, 10 µM): 1.02 fold
CYP3A4 enzyme activity fold induction (CYP3A4; donor two, 20 µM): 0.856 fold
CYP3A4 mRNA fold induction (CYP3A4; donor two, 20 µM): 1.95 fold

Reference: publication PMC7982320 (Pharmacology Research & Perspectives, 2021)
